Measurements: patent US4234736A, “Antiandrogenic and schistosomicidal imidazolidine derivatives” (Hoffmann-La Roche Inc., priority 1977, dated 1980)
“And” between values parts separate entries of the source, which are not always exact repeats. Equal values may be shown once.

Legend:
ventral prostate = assay: Antiandrogenic test: ventral prostate weight in testosterone propionate-treated rats; format: in vivo, rat; details: sterilized male rats, 5 per group; s.c. daily for 7 days; compound 10 mg/kg + testosterone propionate 0.5 mg/kg, or testosterone propionate 0.5 mg/kg alone
Method: (§1) The antiandrogenic activity of the compositions of this invention can be determined in the following test:
(§2) 10 mg. per kg of the composition together with 0.5 mg. per kg. of testosterone propionate are administered s.c. daily for 7 days to each of 5 male, sterilized rats. Two control groups of 5 rats each were also used. One control group received no treatment. The second control group received only 0.5 mg. per kg. of testosterone propionate.
(§3) Testosterone propionate causes an increase in weight in the ventral prostrate and the seminal vesicle. Thus, a decrease in weight in the ventral prostrate and the seminal vesicle when a composition containing a compound of formula I is given to the rats in combination with testosterone propionate is a measure of the antiandrogenic activity of that compound.

seminal vesicle = assay: Antiandrogenic test: seminal vesicle weight in testosterone propionate-treated rats; format: in vivo, rat; details: sterilized male rats, 5 per group; s.c. daily for 7 days; compound 10 mg/kg + testosterone propionate 0.5 mg/kg, or testosterone propionate 0.5 mg/kg alone
Method: as §1, §2, §3

Schistosoma mansoni = assay: Schistosomicidal activity in infected mice (VD50); format: in vivo; details: po, 1008 h, p.o., administered 5 times (5 successive days), from 42 days after infection, Probit method, read-out: VD50 (vermicidal dose 50%: the dose which kills 50% of the worm pairs)
Method: Mice were infected subcutaneously with 60 cercariae of Schistosoma mansoni. 42 days after the infection, the animals were treated perorally on 5 successive days with the compositions to be tested 5-10 mice were used for each composition and dosage rate (mg/kg). 10 untreated mice serve as the control. The mice were autopsied either 6 days or 2-3 weeks after conclusion of the treatment. Worm pairs in mesenteric veins, the portal vein and the liver were removed and counted. The percent distribution of the worm pairs in mesenteric veins, the portal vein and the liver was calculated and the condition of the worms (living and dead) recorded. The schistosomicidal activity of the compositions containing a compound of formula I is shown both by an increased proportion of worms in the vessels of the liver and in the appearance of dead worms.
For the evaluation, the percentage proportions of living and dead worm pairs in the vessels of the liver both in infected, treated animals and in infected but untreated control animals were compared. The determination of the VD50 (vermicidal dose 50%: the dose which kills 50% of the worm pairs) is carried out by the Probit method.

[1] = LD50 (acute toxicity), p.o.; details: in vivo, po, species not given

| SMILES | Ventral prostate weight (ventral prostate) | Seminal vesicle weight (seminal vesicle) | ED50 (Schistosoma mansoni) [mg/kg] | LD50 [1] [mg/kg] |
| --- | --- | --- | --- | --- |
| COC(=O)C(C)(C)NC(=O)Nc1ccc(Cl)c(C(F)(F)F)c1 [N-[(3-Trifluoromethyl-4-chloro-phenyl)-carbamoyl]-2-methylalanine methyl ester] | 61 ± 6 mg | 47 ± 11 mg | 74 | > 5000 |
| CC1(C)NC(=O)N(c2cccc(C(F)(F)F)c2)C1=O [3-(3-Trifluoromethyl-phenyl)-5,5-dimethyl-hydantoin] | – | – | – | 625 to 1250 |
| CC1(C)NC(=O)N(c2ccc(Cl)cc2)C1=O [3-(4-Chloro-phenyl)-5,5-dimethyl-hydantoin] | – | – | 77 | 1250 to 2500 |
| CCC(=O)O[C@H]1CC[C@H]2[C@@H]3CCC4=CC(=O)CC[C@]4(C)[C@H]3CC[C@]12C [Testosterone propionate, reference compound] | 140 ± 11 mg and 121 ± 13 mg | 88 ± 5 mg and 100 ± 9 mg | – | – |
| CC1(C)NC(=O)N(c2ccc(Cl)c(Cl)c2)C1=O [3-(3,4-Dichloro-phenyl)-5,5-dimethyl-hydantoin] | 36 ± 4 mg | 29 ± 2 mg | 58 | 2500 to 5000 |
| CC1(C)NC(=O)N(c2ccc(F)cc2)C1=O [3-(4-Fluoro-phenyl)-5,5-dimethyl-hydantoin] | – | – | 69 | 600 to 1200 |
